Assay results reported in patent US20060270694A1, “JAK kinase inhibitors and their uses” (Rigel Pharmaceuticals, Inc., priority 2005, published 2006).

What follows are molecules tested on JAK kinase (JAK1 and JAK3) (assay: IL-4 activation assay: CD23 upregulation in IL-4 stimulated Ramos B-cells, FACS). Details: TABLE 1; IC50 CHMC degranulation / IC50 IL-4 Ramos CD23; minimum ratio, calculated using Syk IC50 of 50 μM (upper limit of assay).
Type: cell-based, human
Method: The selectivity of the compounds illustrated in TABLES 1 and 2 for JAK kinases as compared to Syk kinase was confirmed in cellular assays designed to test for JAK and Syk inhibition. Briefly, JAK inhibition was tested in human Ramos B-cells activated with IL-4. Twenty to 24 hours post stimulation, the cells are stained for upregulation of CD23 and analyzed by FACS. Stimulation of the B-cells with IL-4 leads to the activation of the JAK/STAT pathway through phosphorylation of the JAK kinase JAK1 and JAK3, which in turn phosphorylate and activate transcription of factor […].
For the assay, human Ramos B-cells (ATCC, Catalog No. CRL-1596) are cultured in RPMI 1640 medium (Cellgro, Catalog No. 10-040-CM) containing 10% fetal bovine serum (JRH, Catalog No. 12106-500M) according to the propagation protocol supplied with the cells, and maintained at a density of approximately 3.5×10^5 cells/ml. The day before the assay, the cells are diluted to 3.5×10^5 cells/ml to insure they are in the logorithmic growth phase. The cells are spun down, and suspended in RPMI 1640 medium containing 5% fetal bovine serum to a density of 3.5×10^4 cells/ml and aliquots dispensed into a 96-well tissue culture plate. Cells are incubated with test compound (dissolved in DMSO) or DMSO (control) for 1 hr at 37° C. and then stimulated with IL-4 (Pepotech, Catalog No. 200-04) for 20-24 hours (final concentration is 50 Units/ml). Cells are then spun down, stained with anti-CD23-PE antibody (BD Pharmigen, Catalog No.555711) and analyzed by FACS.

| IC50 Ratio (Syk/JAK) | Compound |
| --- | --- |
| 207 | CN1CCN(c2ccc(Nc3ncc(F)c(NC4CC(C)(C)N(C)C(C)(C)C4)n3)cc2Cl)CC1 [Cmpd 1] |
| 155 | Cc1cc(Nc2ncc(F)c(NC3CCCC3C(N)=O)n2)ccc1N1CCN(C)CC1 (centres unmarked) [Cmpd 2] |
| 145 | Cc1noc(COc2ccc(Nc3nc(Nc4cc(Cl)c(O)c(Cl)c4)ncc3F)cc2)n1 [Cmpd 4] |
| 105 | COC(=O)c1cc(Nc2ncc(F)c(Nc3ccc4c(c3)OCCO4)n2)cc(-c2ncco2)c1 [Cmpd 5] |
| 70 | NC(=O)c1ccc(Nc2ncc(F)c(NC3CCCC3)n2)cc1 [Cmpd 6] |
| 57 | CNC(=O)n1ccc2ccc(Nc3nc(Nc4cc(C)cc(C)c4)ncc3F)cc21 [Cmpd 7] |
| 51 | CNC(=O)COc1cccc(Nc2ncc(F)c(Nc3ccc(OC)c(CN(C)C)c3)n2)c1 [Cmpd 8] |
| 47 | CCNC(=O)Nc1ccc(Nc2ncc(F)c(Nc3ccc(NC(=O)NCC)cc3)n2)cc1 [Cmpd 9] |
| 43 | CCOC(=O)c1cnc(Nc2ccc3[nH]ncc3c2)nc1Nc1ccc2[nH]ncc2c1 [Cmpd 10] |
| 38 | CC(C)Nc1nc(Nc2cccc(N3CCN(C)CC3)c2)ncc1F [Cmpd 11] |
| 36 | Oc1cccc(Nc2ncc(F)c(Nc3cccc(-c4nnc(-c5ccccc5)o4)c3)n2)c1 [Cmpd 12] |
| 26 | CNC(=O)C1=Cc2cccc(Nc3ncc(F)c(Nc4cc(C)cc(C)c4)n3)c2C1 [Cmpd 13] |
| 25 | Cc1cc(Nc2ncc(F)c(N[C@@H]3CC=CC[C@H]3C(N)=O)n2)ccc1N1CCN(C)CC1 [Cmpd 14] |
| 24 | COc1ccc(Nc2ccnc(Nc3ccc(OC)c(-c4ccccc4)c3)n2)cc1-c1ccccc1 [Cmpd 15] |
| 22 | Fc1cnc(Nc2ccc3c(c2)OCCO3)nc1Nn1cccc1 [Cmpd 16] |
| 20 | CCCCOc1ccc(Nc2nc(Nc3ccc4c(c3)OCCO4)ncc2F)cc1 [Cmpd 17] |
| 20 | O=C(O)C1CCC(Nc2nc(Nc3ccc4c(c3)OCCO4)ncc2F)CC1 (centres unmarked) [Cmpd 18] |
| 15 | Fc1cnc(Nc2ccc3c(c2)OCCO3)nc1NC1CCCCC1 [Cmpd 19] |
| 14 | CC(=O)N(C)c1ccc(Nc2ncc(F)c(N3CCN(C)CC3)n2)cc1 [Cmpd 20] |
| 14 | COc1ccc(Nc2nc(Nc3cc(Cl)c(OC)c(Cl)c3)ncc2F)cc1Cl [Cmpd 21] |
| 13 | CNC(=O)COc1cccc(Nc2ncc(F)c(Nc3ccc(OC)c(CN(C(=O)OC(C)(C)C)C(C)C)c3)n2)c1 [Cmpd 22] |
| 12 | CCN1CCN(c2ccc(Nc3ncc(F)c(NC4CC(C)(C)N(C)C(C)(C)C4)n3)cn2)CC1 [Cmpd 23] |
| 12 | Fc1ccc(Nc2ncc(F)c(Nc3ccc4c(c3)OCCO4)n2)cc1Cl [Cmpd 24] |
| 13 | COC(=O)c1ccc(Nc2ncc(F)c(Nc3ccc(OC)c(Cl)c3)n2)cc1 [Cmpd 25] |
| 10 | C[C@H]1Oc2ccc(Nc3nc(Nc4ccc(C(=O)NCC(=O)O)cc4)ncc3F)cc2NC1=O [Cmpd 26] |

| Compound | IC50 Ratio (Syk/JAK) |
| --- | --- |
| Cc1ccc(Nc2ccnc(Nc3ccc(C)c([N+](=O)[O-])c3)n2)cc1[N+](=O)[O-] [Cmpd 3] | 147 |

Same assay, conditions: TABLE 2; IC50 CHMC degranulation (tryptase) / IC50 IL-4 Ramos CD23

| IC50 Ratio (Syk/JAK) | Compound |
| --- | --- |
| 247 | CCN(CC)CCNC(=O)c1ccc(Nc2ncc(F)c(Nc3ccc4c(c3)NC(=O)[C@H](C)O4)n2)cc1 [Cmpd 27] |
| 146 | Cc1cc(Nc2nc(Nc3ccc(C(N)=O)cc3)ncc2F)ccc1N1CCN(C)CC1 [Cmpd 28] |
| 109 | Fc1cnc(Nc2cccc(-c3ncco3)c2)nc1Nc1cc(C2CC2)n[nH]1 [Cmpd 29] |
| 85 | CN1CCN(c2ccc(Nc3ncc(F)c(Nc4cc(C5CC5)n[nH]4)n3)cc2Cl)CC1 [Cmpd 30] |
| 74 | CNC(=O)COc1cc(Nc2ncc(F)c(Nc3cccc(O)c3)n2)cc(OCC(=O)NC)c1 [Cmpd 31] |
| 65 | NCc1ccc(Nc2ncc(F)c(Nc3ccc(CN)cc3)n2)cc1 [Cmpd 32] |
| 57 | CCN(CC)CCNC(=O)c1ccc(Nc2ncc(F)c(Nc3ccc4c(c3)NC(=O)C(CCO)O4)n2)cc1 (centres unmarked) [Cmpd 33] |
| 55 | CCN(CC)CCNC(=O)c1ccc(Nc2ncc(F)c(Nc3ccc(OCc4nc(C)no4)cc3)n2)cc1 [Cmpd 34] |
| 44 | COc1cc(OC)cc(N(C)c2nc(Nc3cc(C)cc(C)c3)ncc2F)c1 [Cmpd 35] |
| 43 | COc1ccc(Nc2nc(Nc3ccc(N4CCN(C)CC4)c(C#N)c3)ncc2F)cc1Cl [Cmpd 36] |
| 42 | C[C@@H]1Oc2ccc(Nc3nc(Nc4ccc(CN)cc4)ncc3F)cc2NC1=O [Cmpd 37] |
| 39 | CCN(CC)CCNC(=O)c1ccc(Nc2ncc(F)c(NC3CCCC3)n2)cc1 [Cmpd 38] |
| 59 | CN1CCN(c2ccc(Nc3ncc(F)c(NC4CCC4)n3)cc2CO)CC1 [Cmpd 39] |
| 32 | CN1CCN(c2cccc(Nc3ncc(F)c(Nc4ccc5c(n4)NCCO5)n3)c2)CC1 [Cmpd 40] |
| 32 | COc1ccc(N(C)c2nc(Nc3cccc(-c4ncco4)c3)ncc2F)cc1OC [Cmpd 41] |
| 32 | C[C@@H]1Oc2ccc(Nc3nc(Nc4ccc(C(N)=O)cc4)ncc3F)cc2NC1=O [Cmpd 42] |
| 31 | COc1c(C)cc(Nc2ncc(F)c(NC3=NCCN3)n2)cc1C [Cmpd 43] |

| IC50 Ratio (Syk/JAK) | Compound |
| --- | --- |
| 30 | NCc1cccc(Nc2ncc(F)c(Nc3cccc(CN)c3)n2)c1 [Cmpd 44] |
| 30 | COc1ccc(Nc2nc(Nc3cccc(-c4ncco4)c3)ncc2F)cc1OC [Cmpd 45] |
| 30 | NC(=O)c1ccc(Nc2ncc(F)c(Nc3ccc(C(N)=O)cc3)n2)cc1 [Cmpd 46] |
| 29 | CCN(CC)CCNC(=O)c1ccc(Nc2ncc(F)c(Nc3cc(OC)cc(OC)c3)n2)cc1 [Cmpd 47] |
| 28 | CCN(CC)CCNC(=O)c1ccc(Nc2ncc(F)c(Nc3ccc(Cl)c(OC)c3)n2)cc1 [Cmpd 48] |
| 26 | Cc1cc(Nc2ncc(F)c(NC3CC(C)(C)N(C)C(C)(C)C3)n2)ccc1N1CCN(C)CC1 [Cmpd 49] |
| 26 | COc1ccc(Nc2nc(Nc3ccc(N4CCN(C)CC4)c(C(N)=O)c3)ncc2F)cc1Cl [Cmpd 50] |
| 25 | COc1ccc(Nc2ncc(F)c(Nc3ccc(OCc4nc(C)no4)cc3)n2)cc1Cl [Cmpd 51] |
| 25 | NCCNC(=O)c1cc2cc(Nc3ncc(F)c(Nc4ccc5oc(C(=O)NCCN)cc5c4)n3)ccc2o1 [Cmpd 52] |
| 24 | CNC(=O)CNC(=O)c1ccc(Nc2ncc(F)c(Nc3ccc4c(c3)C(N)CCO4)n2)cc1 (centres unmarked) [Cmpd 53] |
| 24 | N#Cc1ccc(Nc2ncc(F)c(Nc3ccc(C#N)cc3)n2)cc1 [Cmpd 54] |
| 23 | CNC(=O)c1cc(Nc2ncc(F)c(Nc3ccc(OC)c(Cl)c3)n2)ccc1N1CCN(C)CC1 [Cmpd 55] |
| 21 | CN1CCN(C(=O)CNc2cccc(Nc3ncc(F)c(Nc4cccc(NCCO)c4)n3)c2)CC1 [Cmpd 56] |
| 21 | O=C1Nc2ccc(Nc3nc(Nc4cccc(-c5ncco5)c4)ncc3F)cc2OC1CCO (centres unmarked) [Cmpd 57] |
| 21 | CCN(CC)CCNC(=O)c1ccc(Nc2ncc(F)c(Nc3ccc(OC)c(Cl)c3)n2)cc1 [Cmpd 58] |
| 21 | CCN(CC)CCNC(=O)c1ccc(Nc2ncc(F)c(Nc3ccc(Cl)c(Cl)c3)n2)cc1 [Cmpd 59] |
